Experiment [1] has as its system Caenorhabditis elegans. Briefly: Anthelmintic activity. Format: in vivo. Particulars: read-out: active at levels as low as. An excerpt:
The A80190 compounds are also anthelmintic agents. For example, A80190 is active against Caenorhabditis elegans at levels as low as 20 ppm.

The subject of experiment [2] is Treponema hyodysenteriae. Put plainly: Growth inhibition, swine dysentery agent. Particulars: Brachyspira hyodysenteriae; read-out: inhibits the growth at levels as low as. Format: cell-based. An excerpt: In another aspect the A80190 compounds are useful in the treatment of swine dysentery. A80190 inhibits the growth of Treponema hyodysenteriae, a causative agent of swine dysentery, at levels as low as 0.39 mcg/ml. A preferred method of administration to swine is by incorporation of an appropriate amount of an A80190 compound into the feed ration or drinking water. An appropriate amount will relate to whether the treatment is to prevent or to cure infection. Usually, a lower concentration of active compound is needed to prevent infection than is required for to eliminate infection in animals already afflicted. In general, amounts in the range of from about 20 to about 100 grams of A80190 compound per ton of feed are effective to prevent infection. Amounts in the range of from about 100 to about 500 g of A80190 compound per ton of feed are recommended for treating swine suffering from dysentery. These amounts provide from about 1 to about 5 mg/kg of body weight per day (prophylactic treatment) or from about 5 to about 25 mg/kg of body weight per day (treatment of infected animal). When added to the drinking water, amounts of from about 0.04 to about 0.2 g (prophylactic) or from about 0.2 to about 1 g (therapeutic) of A80190 compound per gallon of water are recommended.

Experiment [3] concerns Clostridium perfringens 81. Put plainly: microbe, parasite or virus in culture. Format: cell-based. The note with it: Clostridium perfringens, 81, 24 h.
The test system of experiment [4] is Bacteroides melaninogenicus 2736. Put plainly: Agar-dilution assay, anaerobic bacteria. Format: cell-based. Particulars: 24-hour incubation. The procedure: (§1) One important aspect of the antimicrobial activity of A80190 compounds relates to their activity against anaerobic bacteria. The minimal inhibitory concentrations (MIC's) at which A80190 inhibits various anaerobic bacteria, as determined by standard agar-dilution assay, are summarized in Table VII. End points were read after 24-hour incubation.

The subject of experiment [5] is Bacteroides melaninogenicus 1856/28. Put plainly: Agar-dilution assay, anaerobic bacteria. Format: cell-based. Particulars: Prevotella intermedia, 24-hour incubation. The procedure:
as §1

Experiment [6] relates to Bacteroides fragilis 1936B. Briefly: Agar-dilution assay, anaerobic bacteria. It counts as cell-based. The note with it: 24-hour incubation. The procedure:
as §1

Experiment [7] concerns Bacteroides corrodens 1874. Put plainly: Agar-dilution assay, anaerobic bacteria. It counts as cell-based. The note with it: Eikenella corrodens, 24-hour incubation. The procedure:
as §1

The test system of experiment [8] is Bacteroides thetaiotaomicron 1438. Briefly: Agar-dilution assay, anaerobic bacteria. Format: cell-based. Particulars: 24-hour incubation. On the procedure: as §1
Experiment [9] has as its system Petococcus prevoti 1281. Briefly: Agar-dilution assay, anaerobic bacteria. Format: cell-based. Particulars: 24-hour incubation. The procedure:
as §1

For experiment [10], the system named is Bacteroides vulgatis 1211. Briefly: Agar-dilution assay, anaerobic bacteria. Format: cell-based. Particulars: 24-hour incubation. The procedure:
as §1

In experiment [11] the test system is Bacteroides fragilis 111. Briefly: Agar-dilution assay, anaerobic bacteria. Format: cell-based. The note with it: 24-hour incubation. The procedure: as §1
The subject of experiment [12] is Bacteroides fragilis 1877. Briefly: Agar-dilution assay, anaerobic bacteria. Format: cell-based. Particulars: 24-hour incubation. The procedure: as §1
For experiment [13], the system named is Clostridium difficile 2994. Briefly: Agar-dilution assay, anaerobic bacteria. Format: cell-based. Particulars: Clostridioides difficile, 24-hour incubation. On the procedure:
as §1

Experimental findings from EP0184291B1, “Polyether antibiotic A80190” (ELI LILLY AND COMPANY, priority 1984, dated 1986) are described below.

≈ marks a conversion by molar mass, not a printed value.

As for `CC[C@@H](O)[C@]1(C)C[C@H](C)[C@@](O)([C@H]2C[C@H](C)[C@H]([C@]3(C)C[C@@H](O[C@H]4CC[C@H](OC)[C@@H](C)O4)[C@H]([C@@H]4CC[C@@]5(O[C@H]([C@@H](C)[C@@H](OC)[C@H](C)C(=O)O)[C@H](C)[C@@H](OC)[C@H]5C)O4)O3)O2)O1` [Example A80190], in [1], the minimal effective concentration worked out at 20 µg/mL. The MIC in experiment [2] was 0.39 µg/mL (≈ 0.47 µM); in experiment [3], less than 0.5 µg/mL; in experiment [4], greater than 128 µg/mL; in experiment [5], greater than 128 µg/mL; in [6], greater than 128 µg/mL; in experiment [7] it was greater than 128 µg/mL. For the same compound, the MIC in [8] was greater than 128 µg/mL; in experiment [9] it was less than 0.5 µg/mL; in [10], 16 µg/mL (≈ 19.3 µM); in [11], greater than 128 µg/mL; in [12], greater than 128 µg/mL; in experiment [13], less than 0.5 µg/mL.
